From patent US20230381142A1, “ANTILEISHMANIAL COMPOUNDS, COMPOSITIONS AND USE THEREOF” (TRUSTEES OF BOSTON UNIVERSITY, priority 2022, published 2023)
Converted amounts (≈) assume the structure as drawn.

What was measured:
[1] = Kinetic aqueous solubility by CLND; assay type: physicochemical; conditions: kinetic from dmso stock, high-throughput CLND
Protocol: Solubility of compounds using ChemiLuminescent Nitrogen Detection (CLND) was measured as described. Solubility of compounds using Charged Aerosol Detection (CAD) was measured as described. Solubility of solid compounds in Fasted Simulated Intestinal Fluid (FaSSIF) was measured as described.

[2] = Artificial membrane permeability (AMP); assay type: in vitro ADME; conditions: PAMPA, pH 7.4
Protocol: Passive permeability of compounds via rate of permeation through an artificial phospholipid membrane at pH 7.4 was measured in a high-throughput format, in duplicate. A solution of 1.8% phosphatidylcholine in 1% decane was added to a 96-well Millicell filter plate along with 250 μL of 50 mM phosphate buffer, pH 7.4 on the donor side, and 100 μL of the same buffer solution on the receiver side. The assay plate was shaken for 45 minutes before adding test compounds. Test compounds were then added to the filter plate and then incubated at room temperature with shaking for three hours. The donor and receiver solutions were next transferred to a 384-well plate for analysis by LC/MS.

[3] = Property forecast index (PFI = ChromLogD7.4 + aromatic rings); assay type: physicochemical
Protocol: At the outset of the project, compound 1 was evaluated against GSK's established criteria for antileishmanial compound advancement (Table 2). Some of these assessments were performed on racemic 1, while chiral separation was also pursued of the 1 racemate to determine the active enantiomer. […] Based on this promising profile, it progressed into medicinal chemistry optimization to better understand structure-activity relationships (SAR) toward improved potency, as well as structure-property relationships (SPR) with an eye toward reducing PFI and plasma protein binding.

human serum albumin = human serum albumin (Homo sapiens, UniProt P02768); test: Human serum albumin (HSA) binding, chromatographic; assay type: in vitro ADME
Chain of human serum albumin (P02768 25-609): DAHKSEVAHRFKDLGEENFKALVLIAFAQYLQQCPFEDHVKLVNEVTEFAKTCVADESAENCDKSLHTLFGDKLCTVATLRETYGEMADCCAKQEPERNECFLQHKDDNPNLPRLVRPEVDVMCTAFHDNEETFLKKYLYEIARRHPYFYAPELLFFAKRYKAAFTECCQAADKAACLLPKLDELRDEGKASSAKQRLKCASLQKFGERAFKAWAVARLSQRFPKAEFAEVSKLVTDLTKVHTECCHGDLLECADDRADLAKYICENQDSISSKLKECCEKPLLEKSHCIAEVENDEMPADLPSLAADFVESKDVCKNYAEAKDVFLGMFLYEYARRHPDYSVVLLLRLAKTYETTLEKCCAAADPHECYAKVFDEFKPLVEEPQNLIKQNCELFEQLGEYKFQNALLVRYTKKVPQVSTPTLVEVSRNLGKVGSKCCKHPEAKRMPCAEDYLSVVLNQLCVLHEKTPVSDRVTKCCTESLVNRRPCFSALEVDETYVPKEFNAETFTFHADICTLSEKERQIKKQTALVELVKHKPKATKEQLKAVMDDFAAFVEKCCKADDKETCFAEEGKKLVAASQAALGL
Protocol: The percentage of compound bound to human serum albumin was measured using a chromatographic method as described. Briefly, each compound was assayed on an immobilized HSA column and gradient retention times measured, with chromatographic peak detection by UV. Each retention time was then converted to a % HSA bound value using a calibration set of compounds with a known % HSA binding.

HepG2 cells = test: HepG2 cytotoxicity; assay type: cell-based; conditions: Homo sapiens; toxicity against HepG2 cells
Protocol: Given the literature precedents described above and the apparent narrow tolerance for R^3 substitutions observed in the primary screen compounds, a thorough and methodical assessment was undertaken of tolerated groups at the three points of diversity (R^1/R^2/R^3) for the core. At this stage of the project, all analogues were assessed using a battery of assays performed in-house at GlaxoSmithKline. For antileishmanial activity, GSK's inMac assay was utilized. This assay provides two readouts of compound potency: average number of intracellular amastigotes per infected cell (AMMAC) EC50, percentage of infected cells per well (INFCELL) EC50, as well as a toxicity output derived from the number of host cells (MAC EC50). In addition, compounds were assessed for toxicity against HepG2 cells (HEPG2 EC50). Here, AMMAC EC50 values were focused on for relative potency assessments. […] It should be noted that for all compounds assessed in this project, the measured toxicity against THP-1 macrophages either equaled or exceeded that of HepG2 hepatocytes, therefore the MAC SI is used here as the more conservative estimate of therapeutic index.

host THP-1 macrophages = test: GSK inMac assay, host cell toxicity readout (LD MAC); assay type: cell-based, human; conditions: Homo sapiens, THP-1, cytotoxicity against host THP-1 macrophages
In short: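 MAC EC50 reflects THP-1 host cell counts, measured within GSK's inMac L. donovani infection assay that also scores intracellular amastigotes and infected-cell percentage.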

[4] = tested on: L. donovani intracellular amastigotes infecting THP-1 macrophages; test: GSK intramacrophage L. donovani assay (LD AMMAC, inMac; Assay Conditions C); assay type: cell-based; conditions: Leishmania donovani; growth inhibition of L. donovani intracellular amastigotes infecting THP-1 macrophages; read-out: LD AMMAC EC50
In short: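 EC50 values come from counting amastigotes per infected THP-1 macrophage (AMMAC). Parallel read-outs give percentage of infected cells per well (INFCELL) and a macrophage-number toxicity EC50 (MAC).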

[5] = aqueous (not further specified)
[6] = aqueous medium (not further specified)

| SMILES | solubility [1, 5] [µM] | Papp at 3 h [2] [nm/s] | PFI [3] | HSA Binding (human serum albumin) [%] | EC50 [4] [µM] | solubility [1, 6] [µM] | solubility ([1]; aqueous medium) [µM] | EC50 (HepG2 cells) [µM] | EC50 (host THP-1 macrophages) [µM] |
| --- | --- | --- | --- | --- | --- | --- | --- | --- | --- |
| CC(C)Cc1n[nH]c2c1C(c1ccc(F)cc1)N(c1ccc(C(=O)O)cc1)C2=O (centres unmarked) [Compound 27] | ≥ 389 | < 3 | 4.9 | 95.2 | > 50 |  |  | > 100 | > 50 |
| COc1ccccc1N1C(=O)c2[nH]nc(CC(C)C)c2C1c1ccc(F)cc1 (centres unmarked) [Compound 29] |  | 590 | 8.5 | 97.5 | 20 | 240 (≈ 91.1 µg/mL) |  | 79.4 | > 50 |
| COc1ccc(N2C(=O)c3[nH]nc(CC(C)C)c3C2c2ccc(F)cc2)cn1 (centres unmarked) [Compound 31] |  | 260 | 8.0 | 95.5 | 10 | 194 (≈ 73.8 µg/mL) |  | > 100 | > 50 |
| CC(C)Cc1n[nH]c2c1C(c1ccc(F)cc1)N(c1cccnc1)C2=O (centres unmarked) [Compound 32] |  | 470 | 7.2 | 93.4 | 25.1 | 182 (≈ 63.8 µg/mL) |  | > 100 | > 50 |
| CC(C)Cc1n[nH]c2c1C(c1ccc(F)cc1)N(c1ccccn1)C2=O (centres unmarked) [Compound 33] |  | 200 | 8.5 | 96.6 | 20 | 219 (≈ 76.7 µg/mL) |  | > 100 | > 50 |
| COc1ccc(CN2C(=O)c3[nH]nc(CC(C)C)c3C2c2ccc(F)cc2)cc1 (centres unmarked) [Compound 34] |  | 550 | 9.0 | 98.2 | 12.6 | 45 (≈ 17.7 µg/mL) |  | 50.1 | 31.6 |
| Cc1ccc(CN2C(=O)c3[nH]nc(CC(C)C)c3C2c2ccc(F)cc2)o1 (centres unmarked) [Compound 35] |  | 370 | 8.9 | 97.2 | 15.8 | 19 (≈ 6.98 µg/mL) |  | 50.1 | 39.8 |
| COC1CCC(N2C(=O)c3[nH]nc(CC(C)C)c3C2c2ccc(F)cc2)CC1 (centres unmarked) [Compound 36] |  | 570 | 7.3 | 92.1 | 25.1 | ≥ 450 |  | > 100 | > 50 |
| CC(C)Cc1n[nH]c2c1C(c1ccc(F)cc1)N(C1CCC(N(C)C)CC1)C2=O (centres unmarked) [Compound 37] |  | 130 | 4.6 | 81.1 | 25.1 | ≥ 446 |  | > 100 | > 50 |
| CC(C)Cc1n[nH]c2c1C(c1ccc(F)cc1)N(C1CCOCC1)C2=O (centres unmarked) [Compound 38] |  | 490 | 6.5 | 90.2 | 31.6 | ≥ 381 |  | > 100 | > 50 |
| CC(C)Cc1n[nH]c2c1C(c1ccc(F)cc1)N(CC1CCN(C)C1)C2=O (centres unmarked) [Compound 40] |  | < 10 | 4.8 | 77.5 | > 50 | ≥ 351 |  | > 100 | > 50 |
| COCCN1C(=O)c2[nH]nc(CC(C)C)c2C1c1ccc(F)cc1 (centres unmarked) [Compound 41] |  | 520 | 6.7 | 90.2 | > 50 | ≥ 421 |  | > 100 | > 50 |
| COc1ccc(N2C(=O)c3[nH]nc(CC(C)C)c3C2c2ccc(F)cc2)c(OC)c1 (centres unmarked) [Compound 43] |  | 170 | 8.5 | 96.2 | 20 |  | 138 (≈ 56.5 µg/mL) | 63.1 | 31.6 |
| COc1ccc(N2C(=O)c3[nH]nc(CC(C)C)c3C2C2CCCCC2)cc1 (centres unmarked) [Compound 52] |  | 330 | 8.5 | 97.6 | 7.9 | 29 (≈ 10.7 µg/mL) |  | 50.1 | 25.1 |
| COc1ccc(N2C(=O)c3[nH]nc(CC(C)C)c3C2C2CCCC2)cc1 (centres unmarked) [Compound 53] |  | 590 | 8.1 | 96.3 | 12.6 | 119 (≈ 42.1 µg/mL) |  | > 100 | 20 |

Further lines, with some results ahead:

| solubility [1, 5] [µM] | Papp at 3 h [2] [nm/s] | PFI [3] | HSA Binding (human serum albumin) [%] | EC50 [4] [µM] | solubility [1, 6] [µM] | solubility ([1]; aqueous medium) [µM] | SMILES | EC50 (HepG2 cells) [µM] | EC50 (host THP-1 macrophages) [µM] |
| --- | --- | --- | --- | --- | --- | --- | --- | --- | --- |
| 26 (≈ 10.6 µg/mL) | 410 | 8.5 | 97.5 | 1.6 |  |  | COC(=O)c1ccc(N2C(=O)c3[nH]nc(CC(C)C)c3C2c2ccc(F)cc2)cc1 (centres unmarked) [Compound 26] | 39.8 | 31.6 |
|  | 370 | 8.4 | 97.3 | 12.6 | 64 (≈ 24.3 µg/mL) |  | COc1cccc(N2C(=O)c3[nH]nc(CC(C)C)c3C2c2ccc(F)cc2)c1 (centres unmarked) [Compound 30] | 63.1 | 31.6 |
|  | 330 | 9.2 | 96.9 | 4 | 22 (≈ 8.71 µg/mL) |  | COc1ccc(N2C(=O)c3[nH]nc(CC(C)C)c3C2c2ccc(Cl)cc2)cc1 (centres unmarked) [Compound 47] | 50.1 | 15.8 |
|  | 420 | 9.3 | 97.2 | 6.3 | 9 (≈ 3.96 µg/mL) |  | COc1ccc(N2C(=O)c3[nH]nc(CC(C)C)c3C2c2ccc(Br)cc2)cc1 (centres unmarked) [Compound 48] | 50.1 | 15.8 |
|  | 210 | 9.3 | 96.9 | 8 | 12 (≈ 5.15 µg/mL) |  | COc1ccc(N2C(=O)c3[nH]nc(CC(C)C)c3C2c2ccc(C(F)(F)F)cc2)cc1 (centres unmarked) [Compound 49] | 50.1 | 15.8 |
|  | < 3 | 4.5 | 90.7 | > 50 | ≥ 470 |  | COc1ccc(N2C(=O)c3[nH]nc(CC(C)C)c3C2c2ccc(C(=O)O)cc2)cc1 (centres unmarked) [Compound 50] | > 100 | > 50 |
|  | 380 | 8.2 | 95 | 25.1 | 44 (≈ 18.5 µg/mL) |  | COC(=O)c1ccc(C2c3c(CC(C)C)n[nH]c3C(=O)N2c2ccc(OC)cc2)cc1 (centres unmarked) [Compound 51] | 63.1 | 39.8 |
|  | 230 | 8.6 | 97.3 | 3.2 | 75 (≈ 28.5 µg/mL) |  | COc1ccc(N2C(=O)c3[nH]nc(CC(C)C)c3C2c2ccccc2F)cc1 (centres unmarked) [Compound 54] | 31.6 | 31.6 |
|  | 300 | 9.2 | 97.1 | 0.5 | 12 (≈ 5.28 µg/mL) |  | COc1ccc(N2C(=O)c3[nH]nc(CC(C)C)c3C2c2ccccc2Br)cc1 (centres unmarked) [Compound 56] | 39.8 | 25.1 |
|  | 350 | 8.6 | 95.7 | 0.5 | 57 (≈ 22.3 µg/mL) |  | COc1ccc(N2C(=O)c3[nH]nc(CC(C)C)c3C2c2ccccc2OC)cc1 (centres unmarked) [Compound 57, 3-isobutyl-4-(2-methoxyphenyl)-5-(4-methoxyphenyl)-4,5-dihydropyrrolo[3,4-c]pyrazol-6(1H)-one] | 6.3 | 25.1 |
|  | 370 | 8.3 | 96.9 | 5 | 91 (≈ 34.5 µg/mL) |  | COc1ccc(N2C(=O)c3[nH]nc(CC(C)C)c3C2c2cccc(F)c2)cc1 (centres unmarked) [Compound 58] | 50.1 | 12.6 |
